Target: MMP-13CD (catalytic domain of collagenase-3) (Homo sapiens, UniProt P45452)
Assay: Thiopeptolide substrate hydrolysis inhibition assay, MMP-13CD
Type: biochemical
Settings: Table I; thiopeptolide substrate, HEPES pH 7.0, 22° C.; read-out: MMP-13CD IC50
Excerpt: Thiopeptolide substrates show virtually no decomposition or hydrolysis at or below neutral pH in the absence of a matrix metalloproteinase enzyme.

| SMILES | IC50 [µM] |
| --- | --- |
| COc1cc(CNC(=O)c2cc3c(=O)n(Cc4ccccc4)c(=O)n(C)c3s2)cc(OC)c1 [Example 333, 3-Benzyl-1-methyl-2,4-dioxo-1,2,3,4-tetrahydro-thieno[2,3-d]pyrimidine-6-carboxylic acid 3,5-dimethoxy-benzylamide] | > 100 |
| CCC(CC)n1c(=O)c2cc(C(=O)NCc3ccc(OC)cc3)sc2n(C)c1=O [Example 264] | 7.4 |
| COc1cccc(CNC(=O)c2cc3c(=O)n(Cc4ccc([N+](=O)[O-])nc4)c(=O)n(C)c3s2)c1 [Example 368, 1-Methyl-3-(6-nitro-pyridin-3-ylmethyl)-2,4-dioxo-1,2,3,4-tetrahydro-thieno[2,3-d]pyrimidine-6-carboxylic acid 3-methoxy-benzylamide] | 0.735 |
| COc1cccc(CNC(=O)c2cc3c(=O)n(CCSc4ccccc4)c(=O)n(C)c3s2)c1 [Example 287] | 1.9 |
| Cn1c(=O)n(Cc2ccccc2)c(=O)c2cc(C(=O)OCC(Cl)(Cl)Cl)sc21 [Example 171, 3-Benzyl-1-methyl-2,4-dioxo-1,2,3,4-tetrahydro-thieno[2,3-d]pyrimidine-6-carboxylic acid 2,2,2-trichloro-ethyl ester] | 14 |
| Cn1c(=O)n(Cc2ccc(C(=O)OC(C)(C)C)cc2)c(=O)c2cc(C(=O)NCc3cccc(OC(F)F)c3)sc21 [Example 78, 4-[6-(3-Difluoromethoxy-benzylcarbamoyl)-1-methyl-2,4-dioxo-1,4-dihydro-2H-thieno[2,3-d]pyrimidin-3-ylmethyl]-benzoic acid tert-butyl ester] | 0.9 |
| O=C(OCc1ccc2c(c1)OCO2)c1cc2c(=O)n(Cc3ccccc3)c(=O)[nH]c2s1 [Example 10, 3-Benzyl-2,4-dioxo-1,2,3,4-tetrahydro-thieno[2,3-d]pyrimidine-6-carboxylic acid 1,3-benzodioxol-5-ylmethyl ester] | 0.068 |
| COc1ccc(CNC(=O)c2cc3c(=O)n(CC4CCCCC4)c(=O)n(C)c3s2)cc1 [Example 70, 3-cylcohexylmethyl-1-methyl-2,4-dioxo-1,2,3,4-tetrahydro-thieno[2,3-d]pyrimidine-6-carboxylic acid-4methoxy-benzylamide] | 0.119 |
| COC(=O)c1cc2c(=O)n(Cc3ccccc3)c(=O)n(C)c2s1 [Example 300, 3-Benzyl-1-methyl-2,4-dioxo-1,2,3,4-tetrahydro-thieno[2,3-d]pyrimidine-6-carboxylic acid methyl ester] | > 100 |
| Cn1c(=O)n(Cc2ccccc2)c(=O)c2cc(C(=O)NCc3ccc(Cl)c(Cl)c3)sc21 [Example 359, 3-Benzyl-1-methyl-2,4-dioxo-1,2,3,4-tetrahydro-thieno[2,3-d]pyrimidine-6-carboxylic acid 3,4-dichloro-benzylamide] | 1 |
| COc1cccc(CNC(=O)c2cc3c(=O)n(Cc4ccc(N)nc4)c(=O)n(C)c3s2)c1 [Example 384, 3-(6-Amino-pyridin-3-ylmethyl)-1-methyl-2,4-dioxo-1,2,3,4-tetrahydro-thieno[2,3-d]pyrimidine-6-carboxylic acid 3-methoxy-benzylamide] | 0.66 |
| Cn1c(=O)n(Cc2ccccc2)c(=O)c2cc(C(=O)NCc3ccncc3)sc21 [Example 75, 3-Benzyl-1-methyl-2,4-dioxo-1,2,3,4-tetrahydro-thieno[2,3-d]pyrimidine-6-carboxylic acid (pyridin-4-ylmethyl)-amide] | 0.345 |
| Cc1cc(Cn2c(=O)c3cc(C(N)=O)sc3n(C)c2=O)ccc1C(=O)O [Example 249] | 7.8 |
| COc1cccc(CNC(=O)c2cc3c(=O)n(Cc4ccc(C5(C(=O)OC(C)(C)C)CC5)cc4)c(=O)n(C)c3s2)c1 [Example 93, 1-{4-[6-(3-Methoxy-benzylcarbamoyl)-1-methyl-2,4-dioxo-1,4-dihydro-2H-thieno[2,3-d]pyrimidin-3-ylmethyl]-phenyl}-cyclopropanecarboxylic acid tert-butyl ester] | 0.111 |
| COc1cccc(CNC(=O)c2cc3c(=O)n(Cc4cnc(C)s4)c(=O)n(C)c3s2)c1 [Example 86, 1-Methyl-3-(2-methyl-thiazol-5-ylmethyl)-2,4-dioxo-1,2,3,4-tetrahydro-thieno[2,3-d]pyrimidine-6-carboxylic acid 3-methoxy-benzylamide] | 1.4 |
| COC(=O)C1CCC(Cn2c(=O)c3cc(C(=O)NCc4cccc(OC)c4)sc3n(C)c2=O)CC1 (stereo not drawn) [Example 91, 4-[6-(3-Methoxy-benzylcarbamoyl)-1-methyl-2,4-dioxo-1,4-dihydro-2H-thieno[2,3-d]pyrimidin-3-ylmethyl]-cyclohexanecarboxylic acid methyl ester] | 0.0496 |
| COc1ccc(CNC(=O)c2cc3c(=O)n(CCOc4ccccc4)c(=O)n(C)c3s2)cc1 [Example 275] | 0.036 |
| Cn1c(=O)n(Cc2ccccc2)c(=O)c2cc(C(=O)OC3CCOCC3)sc21 [Example 167, 3-Benzyl-1-methyl-2,4-dioxo-1,2,3,4-tetrahydro-thieno[2,3-d]pyrimidine-6-carboxylic acid tetrahydro-pyran-4-yl ester] | 26 |
| COc1cccc(CNC(=O)c2cc3c(=O)n(Cc4ccc(OC(C)(C)C(=O)OC(C)(C)C)cc4)c(=O)n(C)c3s2)c1 [Example 95, 2-{4-[6-(3-Methoxy-benzylcarbamoyl)-1-methyl-2,4-dioxo-1,4-dihydro-2H-thieno[2,3-d]pyrimidin-3-ylmethyl]-phenoxy}-2-methyl-propionic acid tert-butyl ester] | 0.103 |
| COc1cccc(CNC(=O)c2cc3c(=O)n(CCS(=O)(=O)c4ccc(C)cc4)c(=O)n(C)c3s2)c1 [Example 293] | > 100 |
| C=C(C)Cn1c(=O)c2cc(C(=O)NCc3ccc(OC)cc3)sc2n(C)c1=O [Example 263] | 2.15 |
| COc1ccc(CNC(=O)c2cc3c(=O)n(CC[C@@H](C)CCC=C(C)C)c(=O)n(C)c3s2)cc1 [Example 255] | 14 |
| COc1cccc(CNC(=O)c2cc3c(=O)n(CC[C@@H](C)CCC=C(C)C)c(=O)n(C)c3s2)c1 [Example 280] | 17 |

Next, values leading:

| IC50 [µM] | SMILES |
| --- | --- |
| 0.33 | C=C(Cn1c(=O)c2cc(C(=O)OCc3ccccc3)sc2n(C)c1=O)C(=O)O [Example 115, 3-(2-Carboxy-allyl)-1-methyl-2,4-dioxo-1,2,3,4-tetrahydro-thieno[2,3-d]pyrimidine-6-carboxylic acid benzyl ester] |
| 71.5 | O=C(OCc1ccccc1)c1cc2c(=O)n(Cc3ccccc3)c(=O)n(CC3CC3)c2s1 [Example 74, 3-Benzyl-1-cyclopropylmethyl-2,4-dioxo-1,2,3,4-tetrahydro-thieno[2,3-d]pyrimidine-6-carboxylic acid benzyl ester] |
| 0.25 | Cn1c(=O)n(Cc2ccccc2C(F)(F)F)c(=O)c2cc(C(=O)OCc3ccccc3)sc21 [Example 139, 1-Methyl-2,4-dioxo-3-(2-trifluoromethyl-benzyl)-1,2,3,4-tetrahydro-thieno[2,3-d]pyrimidine-6-carboxylic acid benzyl ester] |
| > 100 | Cc1ccccc1CNC(=O)c1cc2c(=O)n(Cc3ccccc3)c(=O)n(C)c2s1 [Example 337, 3-Benzyl-1-methyl-2,4-dioxo-1,2,3,4-tetrahydro-thieno[2,3-d]pyrimidine-6-carboxylic acid 2-methyl-benzylamide] |
| 0.36 | CSc1ccc(COC(=O)c2cc3c(=O)n(Cc4ccccc4)c(=O)n(C)c3s2)cc1 [Example 202, 3-Benzyl-1-methyl-2,4-dioxo-1,2,3,4-tetrahydro-thieno[2,3-d]pyrimidine-6-carboxylic acid 4-methylsulfanyl-benzyl ester] |
| 47 | Cn1c(=O)n(Cc2ccccc2)c(=O)c2cc(C(=O)OCCOc3ccccc3)sc21 [Example 146, 3-Benzyl-1-methyl-2,4-dioxo-1,2,3,4-tetrahydro-thieno[2,3-d]pyrimidine-6-carboxylic acid 2-phenoxyethyl ester] |
| > 100 | Cn1c(=O)n(Cc2ccccc2)c(=O)c2cc(C(=O)OCc3c(F)cccc3Cl)sc21 [Example 190, 3-Benzyl-1-methyl-2,4-dioxo-1,2,3,4-tetrahydro-thieno[2,3-d]pyrimidine-6-carboxylic acid 2-chloro-6-fluoro-benzyl ester] |
| 0.61 | Cn1c(=O)n(Cc2ccc(-c3ccccc3)cc2)c(=O)c2cc(C(=O)OCc3ccccc3)sc21 [Example 100, 3-Biphenyl-4-ylmethyl-1-methyl-2,4-dioxo-1,2,3,4-tetrahydro-thieno[2,3-d]pyrimidine-6-carboxylic acid benzyl ester] |
| 0.16 | C=CCn1c(=O)c2cc(C(=O)OCc3ccccc3)sc2n(C)c1=O [Example 129, 3-Allyl-1-methyl-2,4-dioxo-1,2,3,4-tetrahydro-thieno[2,3-d]pyrimidine-6-carboxylic acid benzyl ester] |
| 0.067 | Cn1c(=O)n(Cc2ccccc2)c(=O)c2cc(C(=O)OCc3cccc(Cl)c3)sc21 [Example 200, 3-Benzyl-1-methyl-2,4-dioxo-1,2,3,4-tetrahydro-thieno[2,3-d]pyrimidine-6-carboxylic acid 3-chloro-benzyl ester] |
| 4.5 | Cn1c(=O)n(Cc2ccccc2C#N)c(=O)c2cc(C(=O)OCc3ccccc3)sc21 [Example 122, 3-(2-Cyano-benzyl)-1-methyl-2,4-dioxo-1,2,3,4-tetrahydro-thieno[2,3-d]pyrimidine-6-carboxylic acid benzyl ester] |
| > 100 | COc1ccc(CCNC(=O)c2cc3c(=O)n(Cc4ccccc4)c(=O)n(C)c3s2)cc1 [Example 355, 3-Benzyl-1-methyl-2,4-dioxo-1,2,3,4-tetrahydro-thieno[2,3-d]pyrimidine-6-carboxylic acid[2-(4-methoxy-phenyl)-ethyl]-amide] |
| 1.1 | Cn1c(=O)n(CCc2ccccc2)c(=O)c2cc(C(=O)OCc3ccccc3)sc21 [Example 104, 1-Methyl-2,4-dioxo-3-phenethyl-1,2,3,4-tetrahydro-thieno[2,3-d]pyrimidine-6-carboxylic acid benzyl ester] |

— patent US20030004172A1, “Fused pyrimidinone matrix metalloproteinase inhibitors” (priority 2001, published 2003)
